Measured values from ChEMBL document CHEMBL5137078, “Lysine-Tethered Stable Bicyclic Cationic Antimicrobial Peptide Combats Bacterial Infection in Vivo” (J Med Chem, 2022).
≈ marks a conversion by molar mass, not a printed value.

Experiments:
Format in all cases: functional
Pseudomonas aeruginosa [1] = test: Antibacterial activity against multidrug-resistant Pseudomonas aeruginosa BNCC 125486 measured after 16 hrs by microdilution assay
Listeria monocytogenes = test: Antibacterial activity against Listeria monocytogenes measured after 16 hrs by microdilution assay
Staphylococcus aureus [2] = test: Antibacterial activity against methicillin-resistant Staphylococcus aureus BNCC 186335 measured after 16 hrs by microdilution assay
Pseudomonas aeruginosa [3] = test: Antibacterial activity against Pseudomonas aeruginosa BNCC 125486 measured after 16 hrs by microdilution assay
Acinetobacter baumannii = test: Antibacterial activity against multidrug-resistant Acinetobacter baumannii measured after 16 hrs by microdilution assay
Staphylococcus aureus [4] = test: Antibacterial activity against Staphylococcus aureus BNCC 186335 measured after 16 hrs by microdilution assay
Escherichia coli [5] = test: Antibacterial activity against multidrug-resistant Escherichia coli BNCC 133264 measured after 16 hrs by microdilution assay
Escherichia coli [6] = test: Antibacterial activity against Escherichia coli BNCC 133264 measured after 16 hrs by microdilution assay

Structure (SMILES) | MIC99.9 (Pseudomonas aeruginosa [1]) | MIC99.9 (Listeria monocytogenes) | MIC99.9 (Staphylococcus aureus [2]) | MIC99.9 (Pseudomonas aeruginosa [3]) | MIC99.9 (Acinetobacter baumannii) | MIC99.9 (Staphylococcus aureus [4]) | MIC99.9 (Escherichia coli [5]) | MIC99.9 (Escherichia coli [6])
CN[C@H](CC(C)C)C(=O)N[C@H]1C(=O)N[C@@H](CC(N)=O)C(=O)N[C@H]2C(=O)N[C@H]3C(=O)N[C@H](C(=O)N[C@H](C(=O)O)c4cc(O)cc(O)c4-c4cc3ccc4O)[C@H](O)c3ccc(c(Cl)c3)Oc3cc2cc(c3O[C@@H]2O[C@H](CO)[C@@H](O)[C@H](O)[C@H]2O[C@H]2C[C@](C)(N)[C@H](O)[C@H](C)O2)Oc2ccc(cc2Cl)[C@H]1O [VANCOMYCIN] | >128 µg/mL | 1 µg/mL (≈ 0.69 µM) | 2 µg/mL (≈ 1.38 µM) | >128 µg/mL | >128 µg/mL | 2 µg/mL (≈ 1.38 µM) | >128 µg/mL | >128 µg/mL
CCN1CCN(C(=O)N[C@@H](C(=O)N[C@@H]2C(=O)N3C(C(=O)O)=C(CSc4nnnn4C)CS[C@H]23)c2ccc(O)cc2)C(=O)C1=O [CEFOPERAZONE] | 128 µg/mL (≈ 198 µM) | 16 µg/mL (≈ 24.8 µM) | >128 µg/mL | 2 µg/mL (≈ 3.1 µM) | >128 µg/mL | <1 µg/mL | >128 µg/mL | <1 µg/mL
